# Laboratory results taken from PubChem BioAssay (NCI).
#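 Step 1: Grow cells in 96-well plates. Step 2: Expose to compound for 48 hours at 5 concentrations. Step 3: Interpolate endpoints linearly; if unreached, use highest concentration. GI50 marks 50% less growth. TGI is the concentration that stops growth completely.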
# Legend:
# Assay in all cases: NCI anticancer screen, dose series, 48 h
# UACC-257 melanoma = system: UACC-257 melanoma
# OVCAR-8 ovarian = system: OVCAR-8 ovarian
# K-562 leukemia = system: K-562 leukemia
# EKVX NSCLC = system: EKVX NSCLC
# HT29 colon = system: HT29 colon
# SF-268 CNS = system: SF-268 CNS
# M14 melanoma = system: M14 melanoma
# SF-539 CNS = system: SF-539 CNS
# MDA-MB-231 breast = system: MDA-MB-231 breast
# MCF7 breast = system: MCF7 breast
SMILES,TGI (UACC-257 melanoma) [µM],TGI (OVCAR-8 ovarian) [µM],TGI (K-562 leukemia) [µM],TGI (EKVX NSCLC) [µM],TGI (HT29 colon) [µM],TGI (SF-268 CNS) [µM],TGI (M14 melanoma) [µM],TGI (SF-539 CNS) [µM],GI50 (UACC-257 melanoma) [µM],GI50 (OVCAR-8 ovarian),GI50 (K-562 leukemia),GI50 (EKVX NSCLC) [µM],GI50 (HT29 colon),GI50 (MDA-MB-231 breast) [µM],TGI (MDA-MB-231 breast) [µM],GI50 (SF-268 CNS),GI50 (SF-539 CNS) [µM],GI50 (M14 melanoma) [µM],GI50 (MCF7 breast),TGI (MCF7 breast)
COc1ccc2cccc(C(=O)c3ccc(C)c4c3CCC4)c2c1,> 100,> 100,> 100,> 100,> 100,> 100,57.6,,,,,,,,,,,,,
CCOC(=O)C1N(S(=O)(=O)c2ccc(C)cc2)CCC12c1ccccc1N(C(C)=O)C2C(/C=C/C(=O)OC)=C/C(=O)OC (stereo not drawn),> 100,> 100,> 100,> 100,> 100,> 100,> 100,> 100,,,,,,,,,,,,
Cc1cc(C)cc(-n2c3nc(=O)n(C)c(=O)c-3nc3ccccc32)c1,31.2,> 100,65.3,44.7,41.3,> 100,77.4,49.7,,,,,,,,,,,,
C[Si](C)(C)/C=C/CCC(C=O)(CCCl)c1ccccc1 (stereo not drawn),75.8,87,> 100,> 100,36,> 100,86.6,> 100,,,,,,,,,,,,
CCN1CCN(c2nc(NNC(=O)Cc3ccccc3)nc(N3CCN(C(c4ccccc4)c4ccccc4)CC3)n2)CC1,3.79,6.57,4.38,30,5.66,5.06,3.41,3.24,1.83,2.51 µM,1.8 µM,9.99,2.24 µM,1.99,3.69,2.06 µM,1.78,1.83,,
Cc1ccc2c(c1)C(=O)c1c-2n(CCCN)c(=O)c2cc([N+](=O)[O-])ccc12,4.97,1.33,0.721,2.22,,0.555,1.16,1.44,1.52,0.387 µM,0.11 µM,0.917,,0.293,0.827,0.0373 µM,0.732,0.452,0.113 µM,0.836 µM
c1ccc2c(CNCCCCCCNCc3cccc4ccccc34)cccc2c1,3.17,29,3.22,26.4,5.04,25.7,3.25,3.48,,,,,,,,,,,,
Cc1c[nH]c2c1C13CC1CN(C(=O)c1cc4cc(NC(=O)c5cc6ccccc6o5)ccc4[nH]1)C3=CC2=O (stereo not drawn),,< 0.001,,,0.143,< 0.001,< 0.001,< 0.001,,> 1.17 ng/mL,> 1.17 ng/mL,,> 1.17 ng/mL,,,> 1.17 ng/mL,,,> 1.17 ng/mL,11700 ng/mL
COc1ccc2c(c1)CCC1C2CC[C@@]2(C)C1CC[C@@]2(O)CNC(=O)/C=C/c1ccc(O)c(OC)c1 (stereo partly drawn),80,> 100,> 100,83.7,10.8,> 100,53,19.3,28,38.4 µM,12.3 µM,10.7,2.8 µM,,,20 µM,,15.8,7.41 µM,> 100 µM
CC#C[C@@]1(O)CCCC[C@@H]1O,> 100,> 100,> 100,> 100,> 100,> 100,> 100,> 100,,,,,,,,,,,,
CC(CN=C(CC(=O)c1ccc(Br)cc1)c1ccccc1)N=C(CC(=O)c1ccc(Br)cc1)c1ccccc1 (stereo not drawn),> 100,> 100,> 100,> 100,> 100,> 100,,> 100,7.77,34.6 µM,> 100 µM,21,7.7 µM,> 100,> 100,29.9 µM,> 100,,2.91 µM,> 100 µM
Cc1cc(NS(=O)(=O)c2ccc(Nc3c4ccccc4nc4c(C(=O)Nc5ccc(S(=O)(=O)N=C(N)N)cc5)cccc34)cc2)no1,> 100,> 100,> 100,> 100,> 100,> 100,> 100,> 100,,,,,,,,,,,,
O=C1c2ccccc2C(=O)c2c1ccc(C(Br)Br)c2[N+](=O)[O-],3.28,4.35,,4.58,3.24,3.17,3.94,3.41,1.74,1.95 µM,,1.96,1.72 µM,1.55,3.13,1.57 µM,1.76,1.97,0.598 µM,2.54 µM
C=CN1C(=O)OC(c2ccccc2)C1c1ccccc1 (stereo not drawn),> 100,> 100,> 100,> 100,> 100,> 100,> 100,> 100,> 100,> 100 µM,,> 100,> 100 µM,,,> 100 µM,,> 100,,
Nc1nc2c(ncn2C2OC(CO)C(O)C2N)c(=O)[nH]1 (stereo not drawn),> 100,> 100,> 100,,> 100,> 100,> 100,> 100,,,,,,,,,,,,
COC(=O)C1=C(OC)c2cc3c(cc2C(c2cc(OC)c(OC)c(OC)c2)C1C(=O)OC)OCO3 (stereo not drawn),> 100,> 100,> 100,> 100,> 100,> 100,> 100,> 100,,,,,,,,,,,,
CC1=NNC(=NCCN(C)C)C/C1=C/c1ccccc1Cl,98,> 100,,> 100,> 100,> 100,> 100,> 100,,,,,,,,,,,,
Cc1cnc[nH]c1=O,> 100,> 100,> 100,> 100,> 100,> 100,> 100,,,,,,,,,,,,,
